One assay concerns the target GPR55 (Homo sapiens, UniProt Q9Y2T6). Briefly: Repeat of proposed literature pairing (mass redistribution and/or internalization). It is filed as cell-based. Also on record: hIL-2Ra signal peptide (N); expressed in transfected cells. To be noted: target GPR55. From the text:
(§1) DMR assays provide a single integrated readout of ligand-dependent cellular response, utilizing an optical biosensor in specialized microplates to detect wavelength shifts of reflected light as it passes through the biosensor and the lower portion of the cell (∼150-200 nm). As a signal pathway agnostic approach, DMR assays are well-suited to the study of GPCRs ([Fang et al., 2008], [Schröder et al., 2011]). The mass redistribution response (Δ picometer (pm)) likely reflects a number of intracellular events, including cytoskeletal rearrangement, protein trafficking and receptor internalization. […] After 3-5 min baseline recordings, peptides (10 μM) were added in duplicate wells using an electronic 384-channel Viaflo pipette (Integra Biosciences, Switzerland) and DMR responses were measured for 60 min at 22°C. […] Real-time data were processed using the BT to column converter MS-Excel macro (Corning) and analyzed in GraphPad Prism 7.0. DMR recordings in peptide screening experiments were buffer and solvent corrected and the area under the curve (AUC) was quantified. […]
(§2) A TR-FRET real-time internalization assay was used to examine peptide-dependent changes in orphan receptor localization as described previously ([Foster and Bräuner-Osborne, 2018]). […] For peptide screening analysis (both DMR and internalization assays), we calculated the area under the curve from the real-time traces. […]

Assay [1] has as its target T1, GPR139 (Homo sapiens, UniProt Q6DWJ6).
T1 construct: hIL-2Ra signal peptide (N); expressed in transfected cells
T1 sequence (Q6DWJ6 2-353 limits assumed): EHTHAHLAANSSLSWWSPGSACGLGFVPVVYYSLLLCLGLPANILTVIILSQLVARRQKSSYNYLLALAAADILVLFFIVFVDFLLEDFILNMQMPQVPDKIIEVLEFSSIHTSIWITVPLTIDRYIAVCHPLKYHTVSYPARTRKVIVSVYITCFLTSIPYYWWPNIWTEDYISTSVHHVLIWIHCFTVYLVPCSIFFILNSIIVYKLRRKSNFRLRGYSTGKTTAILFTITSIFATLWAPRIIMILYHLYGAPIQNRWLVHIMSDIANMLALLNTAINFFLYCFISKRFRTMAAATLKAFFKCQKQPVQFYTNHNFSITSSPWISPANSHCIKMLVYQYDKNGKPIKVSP
The assay is described as above. Type of assay: cell-based. To be noted: GPR139; mean, SEM and n; read-out: pEC50, DMR (peak) (converted). The text has this: DMR assays provide a single integrated readout of ligand-dependent cellular response, utilizing an optical biosensor in specialized microplates to detect wavelength shifts of reflected light as it passes through the biosensor and the lower portion of the cell (∼150-200 nm). As a signal pathway agnostic approach, DMR assays are well-suited to the study of GPCRs ([Fang et al., 2008], [Schröder et al., 2011]). The mass redistribution response (Δ picometer (pm)) likely reflects a number of intracellular events, including cytoskeletal rearrangement, protein trafficking and receptor internalization. Orphan receptor-expressing cells were gently washed twice with assay buffer (HBSS with 1 mM CaCl2, 1 mM MgCl2, 20 mM HEPES, 0.01% pluronic F-68, pH 7.4) containing 0.1% DMSO and cells were equilibrated for 90 min at 22°C in the EPIC Benchtop (BT) System (Corning) to establish a stable DMR signal. After 3-5 min baseline recordings, peptides (10 μM) were added in duplicate wells using an electronic 384-channel Viaflo pipette (Integra Biosciences, Switzerland) and DMR responses were measured for 60 min at 22°C. 100 nM norepinephrine was included as an internal assay control to assess the cellular DMR response via endogenously-expressed adrenoceptors in the TREx 293 cells. Real-time data were processed using the BT to column converter MS-Excel macro (Corning) and analyzed in GraphPad Prism 7.0. DMR recordings in peptide screening experiments were buffer and solvent corrected and the area under the curve (AUC) was quantified. For subsequent validation experiments, peptides were diluted in assay buffer containing 0.1% DMSO and DMR assays were performed as above. […] Data represent mean ± standard error of the mean (SEM) from at least 3 biologically independent experiments.
A TR-FRET real-time internalization assay was used to examine peptide-dependent changes in orphan receptor localization as described previously ([Foster and Bräuner-Osborne, 2018]). Surface-expressed SNAP-tagged receptors were labeled with a cell-impermeable luminescent terbium cryptate (100 nM SNAP Lumi4-Tb; Cisbio, France) for 1 hr at 37°C. Cells were washed to remove excess terbium and incubated with fluorescein-O-acetic acid (100 μM; Sigma Aldrich) for 5 min at 37°C. Peptides were added as for DMR assays, and internalization responses were recorded for 60 min at 37°C using an EnVision 2104 Multimode plate reader (PerkinElmer). 100 nM GLP-1 was used as a positive control for SNAP-GLP1R internalization. Real-time internalization responses were calculated based on TR-FRET (excitation 340 nm; emission 520 nm and 615 nm), and were expressed as the ratio between donor (terbium) and acceptor (fluorescein) emission. For peptide screening analysis (both DMR and internalization assays), we calculated the area under the curve from the real-time traces. […] Validation experiments for receptor internalization were performed as above. Internalization data was processed in MS-Excel and area under the curve was used to generate concentration-response curves using GraphPad Prism 7.0. Data represent mean ± standard error of the mean (SEM) from at least 3 biologically independent experiments.

In assay [2] the target is T1, GPR139. Briefly: IP1 accumulation. Type of assay: cell-based. To be noted: mean, SEM and n, read-out: pEC50, IP1 (converted). From the text: Supplement mmc7.xlsx, sheet "Peptide validation data" | column: Emax; pEC50
The subject of another assay is GPR3. To be noted: target GPR3.
A further assay relates to BRS3. In words: Repeat of proposed literature pairing (mass redistribution and/or internalization). To be noted: target BRS3. Type of assay: cell-based, human.
Another assay deals with human GPCRs. Also on record: method as in Guide to Pharmacology database. To be noted: max reported value, ref Guide to Pharmacology database, cited from earlier work. The text has this: Supplement mmc1.xlsx, sheet "HumanGPCRLigands" | column: pKi_value; pKd_value; pEC50_value; pIC50_value
A further assay concerns the target T2, GPR1 (Homo sapiens, UniProt P46091).
T2 sequence (P46091 1-355): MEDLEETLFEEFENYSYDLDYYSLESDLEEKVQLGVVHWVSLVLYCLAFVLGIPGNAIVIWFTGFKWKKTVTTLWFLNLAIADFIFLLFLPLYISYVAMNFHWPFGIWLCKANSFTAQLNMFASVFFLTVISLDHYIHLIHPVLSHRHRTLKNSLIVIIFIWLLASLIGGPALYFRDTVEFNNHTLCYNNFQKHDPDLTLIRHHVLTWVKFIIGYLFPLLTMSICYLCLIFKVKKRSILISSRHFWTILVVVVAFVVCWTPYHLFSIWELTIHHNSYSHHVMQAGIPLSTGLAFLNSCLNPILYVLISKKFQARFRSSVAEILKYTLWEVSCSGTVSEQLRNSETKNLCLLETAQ
Briefly: Repeat of proposed literature pairing (mass redistribution and/or internalization). Also on record: host or cells: HTLA cells (HEK293-derived). Type of assay: cell-based.
Excerpt: as §1, §2

For the next assay, the target named is T3, MRGPRX2 (Homo sapiens, UniProt Q96LB1).
T3 construct: host or cells: HTLA cells (HEK293-derived)
T3 sequence (Q96LB1 1-330): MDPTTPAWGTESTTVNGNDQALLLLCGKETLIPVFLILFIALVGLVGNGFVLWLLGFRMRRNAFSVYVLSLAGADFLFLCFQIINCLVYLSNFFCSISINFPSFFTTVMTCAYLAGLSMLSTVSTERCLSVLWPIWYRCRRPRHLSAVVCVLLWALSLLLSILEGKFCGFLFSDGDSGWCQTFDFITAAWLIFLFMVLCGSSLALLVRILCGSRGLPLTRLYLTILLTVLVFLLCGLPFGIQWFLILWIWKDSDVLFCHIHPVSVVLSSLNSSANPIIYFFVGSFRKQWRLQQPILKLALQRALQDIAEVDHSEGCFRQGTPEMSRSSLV
The description is as above. It is filed as cell-based. To be noted: repeat of literature pairing across multiple assays; cleavage variants CST-14 and SRIF-28 tested; Figure S7A.
Excerpt: as §1, §2

In assay [3] the target is T4, bombesin receptor 3 (human) (UniProt P32247).
T4 sequence: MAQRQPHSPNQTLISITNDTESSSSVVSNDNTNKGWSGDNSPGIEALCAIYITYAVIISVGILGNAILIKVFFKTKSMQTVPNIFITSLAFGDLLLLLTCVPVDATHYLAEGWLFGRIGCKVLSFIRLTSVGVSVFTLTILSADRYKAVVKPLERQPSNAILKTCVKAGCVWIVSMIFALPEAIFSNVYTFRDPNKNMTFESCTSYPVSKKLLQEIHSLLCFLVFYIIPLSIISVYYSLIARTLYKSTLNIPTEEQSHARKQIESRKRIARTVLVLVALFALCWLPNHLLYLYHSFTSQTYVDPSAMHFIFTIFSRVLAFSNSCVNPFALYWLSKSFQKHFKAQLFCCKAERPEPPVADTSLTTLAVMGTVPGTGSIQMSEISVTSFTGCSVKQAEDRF

Where [4] appears, read: reported ligand tested on receptor-expressing cell line.
Where [5] appears, read: receptor CMKLR1 (cml1_human, Q99788).

Where two headings read alike, the source gives them in different places. Residues, ends and D or L forms follow the SMILES beside them.

GPR55, sequence (Q9Y2T6 2-319 limits assumed): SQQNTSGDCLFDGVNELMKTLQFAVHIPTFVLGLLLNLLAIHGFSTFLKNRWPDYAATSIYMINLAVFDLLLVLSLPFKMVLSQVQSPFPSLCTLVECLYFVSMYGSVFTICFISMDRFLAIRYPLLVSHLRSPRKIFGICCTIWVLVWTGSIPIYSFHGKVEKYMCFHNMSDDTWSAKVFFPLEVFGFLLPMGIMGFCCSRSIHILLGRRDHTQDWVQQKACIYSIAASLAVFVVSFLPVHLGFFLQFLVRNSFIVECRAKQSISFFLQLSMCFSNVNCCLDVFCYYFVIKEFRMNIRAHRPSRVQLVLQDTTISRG

Take `Cc1c(C(=O)NN2CCCCC2)nn(-c2ccc(Cl)cc2Cl)c1-c1ccc(I)cc1` [AM251]: the “Comment (response in DMR / internalization assays)” value at GPR55 is on record as “Robust response”. In addition, at GPR55 (setting [4]), the “Active in DMR/internalization” value is “Yes”.
As to `CSCC[C@H](NC(=O)[C@H](CO)NC(=O)[C@H](Cc1ccc(O)cc1)NC(=O)[C@@H](N)CO)C(=O)N[C@@H](CCC(=O)O)C(=O)N[C@@H](Cc1cnc[nH]1)C(=O)N[C@@H](Cc1ccccc1)C(=O)N[C@@H](CCCNC(=N)N)C(=O)N[C@@H](Cc1c[nH]c2ccccc12)C(=O)NCC(=O)N[C@@H](CCCCN)C(=O)N1CCC[C@H]1C(=O)N[C@H](C(=O)NCC(=O)N[C@@H](CCCCN)C(=O)N[C@@H](CCCCN)C(=O)N[C@@H](CCCNC(=N)N)C(=O)N[C@@H](CCCNC(=N)N)C(=O)N1CCC[C@H]1C(=O)N[C@H](C(=O)N[C@@H](CCCCN)C(=O)N[C@H](C(=O)N[C@@H](Cc1ccc(O)cc1)C(=O)N1CCC[C@H]1C(=O)N[C@@H](CC(N)=O)C(=O)NCC(=O)N[C@@H](C)C(=O)N[C@@H](CCC(=O)O)C(=O)N[C@@H](CC(=O)O)C(=O)N[C@@H](CCC(=O)O)C(=O)N[C@@H](CO)C(=O)N[C@@H](C)C(=O)N[C@@H](CCC(=O)O)C(=O)N[C@@H](C)C(=O)N[C@@H](Cc1ccccc1)C(=O)N1CCC[C@H]1C(=O)N[C@@H](CC(C)C)C(=O)N[C@@H](CCC(=O)O)C(=O)N[C@@H](Cc1ccccc1)C(=O)O)C(C)C)C(C)C)C(C)C` [Corticotropin, ACTH] (H-SYSMEHFRWGKPVGKKRRPVKVYPNGAEDESAEAFPLEF-OH), the EC50 is 66.1 nM on GPR139 [1] and 1150 nM at GPR139 [2].
`[Cl-].c1ccc2c(c1)[I+]c1ccccc1-2` [Diphenyleneiodonium chloride (DPI)]: the “Comment (response in DMR / internalization assays)” value in the assay with GPR3 is on record as “Robust response in DMR, no response in internalization assay”. Besides, the “Active in DMR/internalization” value with GPR3 (setting [4]) is given as “Yes (DMR)”.
For the molecule `O[C@@](Cc1ncc(CC2(C(F)(F)F)CC2)[nH]1)(c1ccc(-n2cccn2)cc1)C(F)(F)F` [MK-5046], the “Comment (response in DMR / internalization assays)” value in the assay on BRS3 is “Robust response”. In the assay on BRS3 (setting [4]), the “Active in DMR/internalization” value is given as “Yes”.
As for chemerin [reference compound], in the assay on human GPCRs (setting [5]), the pEC50_value is given as 8.5 and the pKd_value is on record as 8.3. Further, the “Peptide pairing for orphan receptor GPR1 (confirmed/unconfirmed)” value with GPR1 (repeat of literature pairing) was “Confirmed peptide pairings for orphans”. Moreover, in the assay with GPR1 (repeat of literature pairing across multiple assays, Figure S7A, Tables S5 and S7), the “receptor-dependent activation by proposed ligand, GPR1” value was “selective receptor-dependent activation”.
cortistatin: the “receptor-dependent activation by proposed ligand, MRGPRX2” value on MRGPRX2 is listed as “selective receptor-dependent activation”.
As to somatostatin [reference compound], the “receptor-dependent activation by proposed ligand, MRGPRX2” value with MRGPRX2 was “selective receptor-dependent activation”. For the same molecule, the pKi_value at human GPCRs (receptor SSTR1 (ssr1_human, P30872)) was 9.4; at human GPCRs (receptor SSTR2 (ssr2_human, P30874)), 10.2; at human GPCRs (receptor SSTR3 (ssr3_human, P32745)), 9.9; at human GPCRs (receptor SSTR4 (ssr4_human, P31391)), 9.2; at human GPCRs (receptor SSTR5 (ssr5_human, P35346)), 10.3.
In assay [3], GNLWATGHFM [neuromedin B] registered a pEC50 of neuromedin B responses in G (q/11) signaling assays (IP1 generation) of 6.39 pEC50 and a pEC50 of neuromedin B responses in mass redistribution of 7.43 pEC50.

(Values after paper PMC6838683, “Discovery of Human Signaling Systems: Pairing Peptides to G Protein-Coupled Receptors” (Cell, 2019).)
